Reference: publication PMC3814616, “BRAF inhibitors suppress apoptosis through off-target inhibition of JNK signaling” (eLife, 2013)

What was measured:
Assay in all cases: Quantitative competitive binding assay (KINOMEscan)
MLK1 (MAP3K9) = target: T1, MLK1 (MAP3K9) (Homo sapiens, UniProt P80192); conditions: for IC50: estimated Kd, averaged pointwise estimates, transformed Hill equation, read-out: Calculated estimate of IC50; for remaining binding at 0.05 µM: read-out: Percent control (50 nM); for remaining binding at 0.2 µM: read-out: Percent control (200 nM); for remaining binding at 1 µM: read-out: Percent control (1000 nM); for remaining binding at 10 µM: read-out: Percent control (10 μM)
T1 construct: purchased KINOMEscan (DiscoveRx), San Diego, CA
T1 sequence (P80192 whole entry): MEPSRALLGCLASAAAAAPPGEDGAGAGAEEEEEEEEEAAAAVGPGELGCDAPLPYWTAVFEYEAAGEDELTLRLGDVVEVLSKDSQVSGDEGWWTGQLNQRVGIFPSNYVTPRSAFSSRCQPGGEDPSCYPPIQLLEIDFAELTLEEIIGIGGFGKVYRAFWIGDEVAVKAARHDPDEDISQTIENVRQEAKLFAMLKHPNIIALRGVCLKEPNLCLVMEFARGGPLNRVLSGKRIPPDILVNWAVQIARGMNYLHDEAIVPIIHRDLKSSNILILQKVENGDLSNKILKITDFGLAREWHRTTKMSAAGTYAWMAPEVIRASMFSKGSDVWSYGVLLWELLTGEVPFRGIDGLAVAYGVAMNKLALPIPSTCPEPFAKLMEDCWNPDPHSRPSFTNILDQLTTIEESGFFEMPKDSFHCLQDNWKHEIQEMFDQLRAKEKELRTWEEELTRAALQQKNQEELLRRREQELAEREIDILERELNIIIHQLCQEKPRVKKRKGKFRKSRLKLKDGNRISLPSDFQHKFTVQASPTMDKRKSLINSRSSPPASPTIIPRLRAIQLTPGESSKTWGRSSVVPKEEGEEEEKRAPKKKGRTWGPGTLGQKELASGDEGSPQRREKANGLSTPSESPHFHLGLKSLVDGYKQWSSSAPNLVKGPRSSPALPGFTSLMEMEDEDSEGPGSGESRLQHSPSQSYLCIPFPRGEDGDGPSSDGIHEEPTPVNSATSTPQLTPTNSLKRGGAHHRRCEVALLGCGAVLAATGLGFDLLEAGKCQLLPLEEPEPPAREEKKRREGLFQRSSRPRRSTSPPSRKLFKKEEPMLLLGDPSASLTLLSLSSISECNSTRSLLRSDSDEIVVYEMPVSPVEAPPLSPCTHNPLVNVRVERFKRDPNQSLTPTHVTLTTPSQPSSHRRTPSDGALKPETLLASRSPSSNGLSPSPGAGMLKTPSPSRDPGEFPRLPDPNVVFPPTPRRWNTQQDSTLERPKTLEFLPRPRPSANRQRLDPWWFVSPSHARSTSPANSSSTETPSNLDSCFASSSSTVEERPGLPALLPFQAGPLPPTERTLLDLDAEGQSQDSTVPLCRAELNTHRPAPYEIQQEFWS

MAP3K3 = target: T2, MAP3K3 (Homo sapiens, UniProt Q99759); conditions: for remaining binding at 0.05 µM: read-out: Percent control (50 nM); for remaining binding at 0.2 µM: read-out: Percent control (200 nM); for remaining binding at 1 µM: read-out: Percent control (1000 nM); for remaining binding at 10 µM: read-out: Percent control (10 μM)
T2 construct: purchased KINOMEscan (DiscoveRx), San Diego, CA
T2 sequence (Q99759 whole entry): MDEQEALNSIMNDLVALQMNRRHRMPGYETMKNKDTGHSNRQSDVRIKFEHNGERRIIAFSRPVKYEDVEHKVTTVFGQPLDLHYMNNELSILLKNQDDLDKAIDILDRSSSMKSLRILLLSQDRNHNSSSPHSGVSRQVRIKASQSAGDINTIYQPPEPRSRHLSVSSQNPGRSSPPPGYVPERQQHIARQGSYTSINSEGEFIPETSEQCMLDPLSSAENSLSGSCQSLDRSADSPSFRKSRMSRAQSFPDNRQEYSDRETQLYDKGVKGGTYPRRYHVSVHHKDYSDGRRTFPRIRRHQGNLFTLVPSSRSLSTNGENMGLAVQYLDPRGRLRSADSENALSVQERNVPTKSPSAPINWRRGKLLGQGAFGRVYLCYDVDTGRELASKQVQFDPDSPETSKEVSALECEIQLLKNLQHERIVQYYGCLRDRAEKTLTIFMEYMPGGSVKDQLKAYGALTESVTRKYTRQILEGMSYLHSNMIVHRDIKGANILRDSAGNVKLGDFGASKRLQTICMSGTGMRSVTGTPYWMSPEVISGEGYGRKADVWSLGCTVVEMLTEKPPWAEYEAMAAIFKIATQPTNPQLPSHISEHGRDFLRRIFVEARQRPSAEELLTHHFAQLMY

ASK2 (MAP3K6) = target: T3, ASK2 (MAP3K6) (Homo sapiens, UniProt O95382); conditions: for remaining binding at 0.05 µM: read-out: Percent control (50 nM); for remaining binding at 0.2 µM: read-out: Percent control (200 nM); for remaining binding at 1 µM: read-out: Percent control (1000 nM); for remaining binding at 10 µM: read-out: Percent control (10 μM)
T3 construct: purchased KINOMEscan (DiscoveRx), San Diego, CA
T3 sequence (O95382 1-1288): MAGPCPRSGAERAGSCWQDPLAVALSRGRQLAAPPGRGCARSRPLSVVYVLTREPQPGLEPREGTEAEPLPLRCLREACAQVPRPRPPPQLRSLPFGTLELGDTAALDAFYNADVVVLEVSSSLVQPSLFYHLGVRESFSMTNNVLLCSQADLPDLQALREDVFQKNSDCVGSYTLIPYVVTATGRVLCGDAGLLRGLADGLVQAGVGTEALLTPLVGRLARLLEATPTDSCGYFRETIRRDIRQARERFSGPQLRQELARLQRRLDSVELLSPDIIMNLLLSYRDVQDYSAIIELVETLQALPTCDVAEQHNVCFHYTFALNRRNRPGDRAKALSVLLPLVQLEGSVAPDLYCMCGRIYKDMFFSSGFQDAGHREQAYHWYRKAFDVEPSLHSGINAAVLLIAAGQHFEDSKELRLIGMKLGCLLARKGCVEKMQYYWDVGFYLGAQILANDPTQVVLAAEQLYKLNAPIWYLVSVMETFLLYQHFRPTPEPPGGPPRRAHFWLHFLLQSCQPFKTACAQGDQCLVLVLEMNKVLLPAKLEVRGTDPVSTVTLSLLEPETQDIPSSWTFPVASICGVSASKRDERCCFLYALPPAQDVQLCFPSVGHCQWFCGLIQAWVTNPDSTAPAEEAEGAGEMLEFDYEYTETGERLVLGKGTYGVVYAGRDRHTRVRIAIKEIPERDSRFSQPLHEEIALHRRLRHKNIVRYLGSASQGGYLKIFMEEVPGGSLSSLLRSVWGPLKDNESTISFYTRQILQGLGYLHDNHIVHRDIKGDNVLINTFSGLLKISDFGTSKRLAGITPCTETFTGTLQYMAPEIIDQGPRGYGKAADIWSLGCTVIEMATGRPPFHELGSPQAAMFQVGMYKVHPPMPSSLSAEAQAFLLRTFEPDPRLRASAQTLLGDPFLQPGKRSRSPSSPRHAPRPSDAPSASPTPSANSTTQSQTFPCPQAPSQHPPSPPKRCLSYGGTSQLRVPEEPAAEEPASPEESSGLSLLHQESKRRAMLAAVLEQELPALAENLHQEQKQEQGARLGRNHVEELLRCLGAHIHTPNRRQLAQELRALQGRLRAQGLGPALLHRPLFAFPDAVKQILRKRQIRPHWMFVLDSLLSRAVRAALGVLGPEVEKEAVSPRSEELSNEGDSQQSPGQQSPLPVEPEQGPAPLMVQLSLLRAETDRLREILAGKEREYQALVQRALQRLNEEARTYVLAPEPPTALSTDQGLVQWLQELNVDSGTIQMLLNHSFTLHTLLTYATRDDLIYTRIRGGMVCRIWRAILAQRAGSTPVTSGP

MAP4K4 = target: T4, MAP4K4 (Homo sapiens, UniProt O95819); conditions: for remaining binding at 0.05 µM: read-out: Percent control (50 nM); for remaining binding at 0.2 µM: read-out: Percent control (200 nM); for remaining binding at 10 µM: read-out: Percent control (10 μM)
T4 construct: purchased KINOMEscan (DiscoveRx), San Diego, CA
T4 sequence (O95819 whole entry): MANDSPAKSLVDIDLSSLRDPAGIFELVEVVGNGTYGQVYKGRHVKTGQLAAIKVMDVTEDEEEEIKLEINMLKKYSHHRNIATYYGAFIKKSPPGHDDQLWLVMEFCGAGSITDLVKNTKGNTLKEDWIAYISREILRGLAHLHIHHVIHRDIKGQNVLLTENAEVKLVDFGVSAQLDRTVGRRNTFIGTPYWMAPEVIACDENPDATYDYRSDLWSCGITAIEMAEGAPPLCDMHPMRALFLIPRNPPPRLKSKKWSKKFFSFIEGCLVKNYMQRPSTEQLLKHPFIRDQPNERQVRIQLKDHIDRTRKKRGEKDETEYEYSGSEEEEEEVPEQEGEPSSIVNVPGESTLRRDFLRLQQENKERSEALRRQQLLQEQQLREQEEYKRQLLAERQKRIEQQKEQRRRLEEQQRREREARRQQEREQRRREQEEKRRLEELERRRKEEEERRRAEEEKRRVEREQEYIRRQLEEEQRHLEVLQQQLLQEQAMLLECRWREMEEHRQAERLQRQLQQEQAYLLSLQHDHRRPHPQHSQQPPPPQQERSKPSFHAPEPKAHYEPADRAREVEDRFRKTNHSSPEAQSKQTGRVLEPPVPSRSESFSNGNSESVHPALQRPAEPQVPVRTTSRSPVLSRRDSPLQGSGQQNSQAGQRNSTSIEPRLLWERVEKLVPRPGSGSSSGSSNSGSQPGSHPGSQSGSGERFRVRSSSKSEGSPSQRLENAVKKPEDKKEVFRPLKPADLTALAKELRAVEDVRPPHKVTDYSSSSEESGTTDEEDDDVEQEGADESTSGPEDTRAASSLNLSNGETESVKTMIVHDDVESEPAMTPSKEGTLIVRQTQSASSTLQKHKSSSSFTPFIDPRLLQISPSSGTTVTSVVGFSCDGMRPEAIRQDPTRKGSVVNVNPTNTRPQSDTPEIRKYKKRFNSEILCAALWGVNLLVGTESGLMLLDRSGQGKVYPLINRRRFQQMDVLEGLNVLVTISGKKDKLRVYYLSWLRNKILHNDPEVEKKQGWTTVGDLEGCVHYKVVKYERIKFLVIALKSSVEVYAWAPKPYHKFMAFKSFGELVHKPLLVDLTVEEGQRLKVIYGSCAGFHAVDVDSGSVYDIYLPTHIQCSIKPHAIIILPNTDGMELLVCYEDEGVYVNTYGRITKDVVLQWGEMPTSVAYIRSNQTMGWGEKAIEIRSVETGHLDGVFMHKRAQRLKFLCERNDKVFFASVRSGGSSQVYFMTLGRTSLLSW

TAOK3 = target: T5, TAOK3 (Homo sapiens, UniProt Q9H2K8); conditions: for remaining binding at 0.05 µM: read-out: Percent control (50 nM); for remaining binding at 0.2 µM: read-out: Percent control (200 nM); for remaining binding at 1 µM: read-out: Percent control (1000 nM); for remaining binding at 10 µM: read-out: Percent control (10 μM)
T5 construct: purchased KINOMEscan (DiscoveRx), San Diego, CA
T5 sequence (Q9H2K8 whole entry): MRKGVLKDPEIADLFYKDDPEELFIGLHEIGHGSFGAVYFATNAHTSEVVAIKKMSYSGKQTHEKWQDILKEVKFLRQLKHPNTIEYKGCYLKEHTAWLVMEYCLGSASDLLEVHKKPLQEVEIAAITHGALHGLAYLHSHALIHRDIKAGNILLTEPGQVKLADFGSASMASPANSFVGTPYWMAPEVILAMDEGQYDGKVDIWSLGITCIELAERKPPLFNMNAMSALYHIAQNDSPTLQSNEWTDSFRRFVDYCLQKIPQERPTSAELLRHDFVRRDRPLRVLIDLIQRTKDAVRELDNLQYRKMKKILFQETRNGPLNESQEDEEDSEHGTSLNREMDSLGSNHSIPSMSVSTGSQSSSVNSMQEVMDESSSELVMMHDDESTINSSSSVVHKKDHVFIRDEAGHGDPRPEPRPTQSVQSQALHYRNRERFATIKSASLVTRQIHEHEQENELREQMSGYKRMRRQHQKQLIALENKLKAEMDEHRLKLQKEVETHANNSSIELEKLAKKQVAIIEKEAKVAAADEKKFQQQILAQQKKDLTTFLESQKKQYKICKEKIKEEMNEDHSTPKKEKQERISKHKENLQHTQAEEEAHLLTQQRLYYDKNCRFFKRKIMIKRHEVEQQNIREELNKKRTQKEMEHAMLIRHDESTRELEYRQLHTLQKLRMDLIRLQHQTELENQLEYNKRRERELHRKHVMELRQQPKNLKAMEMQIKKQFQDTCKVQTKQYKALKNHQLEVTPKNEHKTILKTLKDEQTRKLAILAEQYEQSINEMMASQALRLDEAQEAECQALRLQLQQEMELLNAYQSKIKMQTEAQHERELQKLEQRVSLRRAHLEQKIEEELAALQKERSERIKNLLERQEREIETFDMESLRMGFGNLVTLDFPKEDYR

BLK = target: T6, BLK (Homo sapiens, UniProt P51451); conditions: for IC50: estimated Kd, averaged pointwise estimates, transformed Hill equation, read-out: Calculated estimate of IC50; for remaining binding at 0.05 µM: read-out: Percent control (50 nM); for remaining binding at 0.2 µM: read-out: Percent control (200 nM); for remaining binding at 1 µM: read-out: Percent control (1000 nM); for remaining binding at 10 µM: read-out: Percent control (10 μM)
T6 construct: purchased KINOMEscan (DiscoveRx), San Diego, CA
T6 sequence (P51451 whole entry): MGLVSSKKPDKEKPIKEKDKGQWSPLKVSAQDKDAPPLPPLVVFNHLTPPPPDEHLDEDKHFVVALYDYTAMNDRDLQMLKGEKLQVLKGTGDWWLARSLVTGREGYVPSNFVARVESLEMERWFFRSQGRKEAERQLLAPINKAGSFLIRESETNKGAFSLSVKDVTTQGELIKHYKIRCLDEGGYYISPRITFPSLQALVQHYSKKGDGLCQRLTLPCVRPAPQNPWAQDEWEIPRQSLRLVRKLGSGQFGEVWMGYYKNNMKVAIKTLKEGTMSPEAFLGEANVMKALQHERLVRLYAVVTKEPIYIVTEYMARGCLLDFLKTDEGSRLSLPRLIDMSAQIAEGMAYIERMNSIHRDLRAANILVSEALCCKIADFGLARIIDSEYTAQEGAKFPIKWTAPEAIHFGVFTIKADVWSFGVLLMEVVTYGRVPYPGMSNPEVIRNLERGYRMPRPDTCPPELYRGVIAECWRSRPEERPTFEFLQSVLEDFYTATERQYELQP

LZK (MAP3K13) = target: T7, LZK (MAP3K13) (Homo sapiens, UniProt O43283); conditions: for remaining binding at 0.05 µM: read-out: Percent control (50 nM); for remaining binding at 0.2 µM: read-out: Percent control (200 nM); for remaining binding at 1 µM: read-out: Percent control (1000 nM); for remaining binding at 10 µM: read-out: Percent control (10 μM)
T7 construct: purchased KINOMEscan (DiscoveRx), San Diego, CA
T7 sequence (O43283 1-966): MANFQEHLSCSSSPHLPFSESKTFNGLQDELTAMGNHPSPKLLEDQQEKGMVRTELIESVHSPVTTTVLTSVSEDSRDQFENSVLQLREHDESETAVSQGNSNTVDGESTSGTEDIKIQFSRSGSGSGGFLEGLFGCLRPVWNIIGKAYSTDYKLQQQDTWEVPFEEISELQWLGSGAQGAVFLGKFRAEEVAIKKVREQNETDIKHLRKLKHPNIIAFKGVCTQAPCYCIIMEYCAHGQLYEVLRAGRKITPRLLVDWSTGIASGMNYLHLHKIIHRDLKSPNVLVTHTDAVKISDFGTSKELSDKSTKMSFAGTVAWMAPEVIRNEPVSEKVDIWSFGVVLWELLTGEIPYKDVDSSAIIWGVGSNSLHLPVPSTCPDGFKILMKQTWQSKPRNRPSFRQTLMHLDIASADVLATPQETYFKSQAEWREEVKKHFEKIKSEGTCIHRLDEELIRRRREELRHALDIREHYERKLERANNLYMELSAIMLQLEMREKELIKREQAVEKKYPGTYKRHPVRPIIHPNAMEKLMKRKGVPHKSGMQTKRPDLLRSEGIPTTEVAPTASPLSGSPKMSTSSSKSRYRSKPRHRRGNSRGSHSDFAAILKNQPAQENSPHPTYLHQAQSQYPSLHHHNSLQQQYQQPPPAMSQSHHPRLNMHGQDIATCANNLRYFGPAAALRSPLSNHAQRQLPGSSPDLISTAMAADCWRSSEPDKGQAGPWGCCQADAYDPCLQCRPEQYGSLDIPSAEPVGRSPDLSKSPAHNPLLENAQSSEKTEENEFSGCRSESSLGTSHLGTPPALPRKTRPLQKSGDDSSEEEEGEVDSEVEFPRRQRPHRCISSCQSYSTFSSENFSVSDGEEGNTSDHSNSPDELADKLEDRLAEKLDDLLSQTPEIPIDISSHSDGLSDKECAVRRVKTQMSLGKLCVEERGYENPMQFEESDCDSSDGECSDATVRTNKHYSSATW

[1] = estimated Kd, averaged pointwise estimates, transformed Hill equation, read-out: Calculated estimate of IC50

Compound | IC50 (MLK1 (MAP3K9)) [nM] | remaining binding at 0.05 µM (MLK1 (MAP3K9)) [%] | remaining binding at 0.2 µM (MLK1 (MAP3K9)) [%] | remaining binding at 1 µM (MLK1 (MAP3K9)) [%] | remaining binding at 10 µM (MLK1 (MAP3K9)) [%] | remaining binding at 0.05 µM (MAP3K3) [%] | remaining binding at 0.2 µM (MAP3K3) [%] | remaining binding at 1 µM (MAP3K3) [%] | remaining binding at 10 µM (MAP3K3) [%] | remaining binding at 0.05 µM (ASK2 (MAP3K6)) [%] | remaining binding at 0.2 µM (ASK2 (MAP3K6)) [%] | remaining binding at 1 µM (ASK2 (MAP3K6)) [%] | remaining binding at 10 µM (ASK2 (MAP3K6)) [%] | remaining binding at 0.05 µM (MAP4K4) [%] | remaining binding at 0.2 µM (MAP4K4) [%] | remaining binding at 10 µM (MAP4K4) [%] | remaining binding at 0.05 µM (TAOK3) [%] | remaining binding at 0.2 µM (TAOK3) [%] | remaining binding at 1 µM (TAOK3) [%] | remaining binding at 10 µM (TAOK3) [%] | also measured
CCCS(=O)(=O)Nc1ccc(F)c(C(=O)c2c[nH]c3ncc(Cl)cc23)c1F [PLX4720] | > 10000 | 100 | 100 | 100 | 100 | 94 | 97 | 98 | 75 | 94 | 100 | 100 | 100 | 92 | 99 | 46 | 100 | 98 | 96 | 58 | remaining binding at 1 µM (MAP4K4; read-out: Percent control (1000 nM)): 100%; IC50 (BLK): 447 nM; remaining binding at 0.05 µM (BLK): 91%; remaining binding at 0.2 µM (BLK): 78%; remaining binding at 1 µM (BLK): 32%; remaining binding at 10 µM (BLK): 1%; remaining binding at 0.05 µM (LZK (MAP3K13)): 94%; remaining binding at 0.2 µM (LZK (MAP3K13)): 100%; remaining binding at 1 µM (LZK (MAP3K13)): 96%; remaining binding at 10 µM (LZK (MAP3K13)): 75%
CCCS(=O)(=O)Nc1ccc(F)c(C(=O)c2c[nH]c3ncc(-c4ccc(Cl)cc4)cc23)c1F [vemurafenib] | 14000 | 100 | 93 | 97 | 41 | 87 | 97 | 100 | 94 | 94 | 98 | 100 | 74 | 96 | 92 | 23 | 92 | 98 | 92 | 80 | IC50 (MAP4K4; [1]): 2840 nM; IC50 (TAOK3; [1]): 15500 nM; IC50 (BLK): 518 nM; remaining binding at 0.05 µM (BLK): 96%; remaining binding at 0.2 µM (BLK): 66%; remaining binding at 1 µM (BLK): 30%; remaining binding at 10 µM (BLK): 0.55%; remaining binding at 0.05 µM (LZK (MAP3K13)): 100%; remaining binding at 0.2 µM (LZK (MAP3K13)): 99%; remaining binding at 1 µM (LZK (MAP3K13)): 93%; remaining binding at 10 µM (LZK (MAP3K13)): 74%
